Test results from paper PMC11189555, “Aryl amino acetamides prevent Plasmodium falciparum ring development via targeting the lipid-transfer protein PfSTART1” (Nature Communications, 2024).
Several values for one entry are separate records, joined by “and”; a condition that tells them apart may be missing. Equal entries are not always repeated.

Key:
Type in all cases: cell-based, Plasmodium falciparum
[1] = test system: male gametes from mature stage V gametocytes; assay: Dual gamete formation assay: male gamete formation (exflagellation); details: for inhibition of male gamete formation: 1 µM, 48 h treatment of mature gametocytes; for Dual Gamete Formation Assay: Male at 1 µM, Mean: mean of 4 plates
Method: The compounds were tested in the P. falciparum Dual Gamete Formation Assay (PfDGFA)[84], fully described in the Supplementary Information. […]
Dual gamete formation assays. The compounds were tested in the P. falciparum Dual Gamete Formation Assay (PfDGFA) 13. Briefly, mature stage V gametocytes were exposed to compounds for 48 h at 37°C in 384 well plates in gametocyte culture medium (RPMI 1640 supplemented with 25 mM HEPES, 50 μg/mL hypoxanthine, 4.8 g/L NaHCO3, 2 mM L-glutamine, 5% pooled type AB serum, 0.5% Albumax II (Gibco)) under a 1% O2, 3% CO2, 96% N2 environment. Gametogenesis was then triggered by the addition of 10 μL ookinete medium (gametocyte culture medium supplemented with 100 μM xanthurenic acid and 0.27 µg/mL Cy3-labelled anti-Pfs25 antibody) to each well at room temperature. Plates were then cooled on a metal block at 4°C for four min to ensure even cooling and then stabilised for a further 4 min at 28°C. At 20 min post-induction, male gametogenesis was recorded in each well by automated brightfield microscopy using a x4 objective lens and 1.5x magnifier (x6 effective magnification). Afterward, plates were incubated in the dark at room temperature for 24 h and then female gametogenesis recorded in each well by automated fluorescence microscopy (anti-Pfs25-positive cells). All experiments were performed in quadruplicate with DMSO and cabamiquine (DDD107498)17 as negative and positive controls respectively. All data was evaluated in comparison to the positive and negative controls to calculate percentage inhibition of male and female gametocytes, and dose response analysis and IC50 calculation performed using GraphPad Prism. […]

ring-stage 3D7 parasites = assay: Stage arrest and recovery assay (SYBR Green flow cytometry, Giemsa smears); details: for growth after washout of compound: 48 h treatment, then washout, 6 days post washout (T = 192 h); for ring morphology after 48 h / schizont development at 36 h / impact on already-developed rings or trophozoites: M-833 2 µM, W-991 60 nM from ring stage; for impact on already-developed rings or trophozoites: one cycle; for Parasitemia derived from flow cytometry: replicates 1 and 2
Method: Parasites were synchronised using a Percoll density gradient (Cytiva) combined with 5% sorbitol lysis. Ring-stage parasites at 0-4 hours post-invasion at 2% parasitemia and haematocrit were then added to 2 µM M-833, 60 nM W-991 or 0.02% DMSO and incubated at 37 °C with compound replenished every 24 h. After 48 h, samples of M-833 and W-991-treated parasites were washed x 3 in complete RPMI to remove the compound and put back into culture for the remainder of the experiment. For the following two cycles of growth, samples were taken every 24 h to monitor recovery. Upon completion of time points, fixed cells were stained with 2.5 x SYBR Green (Invitrogen) in PBS, washed once in PBS, and analysed on the Attune Flow Cytometer (ThermoFisher Scientific). Giemsa-stained blood smears were visualised and imaged using a Nikon Eclipse E600 microscope.

Hyp1-Nluc parasites = assay: Egress, invasion & recovery assay (Nluc bioluminescence, smears); details: W-991 60 nM; for parasite morphology at 72 h after 4 h treatment: M-833 2 µM, Giemsa smears; for parasite growth (Nluc bioluminescence) followed 72 h after 4 h treatment: schizonts treated 4 h: M-833 2 µM, ML10 30 nM, E64 10 µM, heparin 100 µg/mL, then washed off
From the text: To measure egress, invasion, and follow-up recovery in the presence of different compounds, we adapted the method developed in[11], using Hyp1-Nluc parasites. A full description is in the Supplementary Information. […]
and compound 4. Note that M-833 was first purchased from MolPort (MolPort -002-267-916) then made in-house at WEHI: the differences observed in EC50s across experiments are attributed to the different batches of M -833. […]
Egress, invasion & recovery assay. To measure egress, invasion and follow up recovery in the presence of different compounds, we adapted the method developed in6, using Hyp1-Nluc parasites7. These parasites episomally express the exported PEXEL protein Hyp1 (PF3D7_0113300) tagged with a NanoLuc luciferase (NLuc) and were selected with 2.5 nM WR99210 (Jacobus). Highly synchronised schizonts were obtained using ML10 (LifeArc) and sorbitol synchronisation, and Percoll-purified (the culture was gently layered over 67% Percoll (Cytiva) in RPMI, and centrifuged for 15 min at 1500 g and the schizont layer was collected and washed). In a 96-well plate, […]
cultures were set up in 4 replicates (3 replicates for the Nluc readout, and one replicate for Giemsa smears) with 1-2% parasitemia, 2% haematocrit, with the following […]
100 μg/ml heparin (Sigma) and 10 μM E64 (Sigma). The schizonts were allowed to egress and invade for 4 h at 37°C. A “background” plate without treatment was left in the fridge during this time. After 4 h, cultures were sorbitol -treated to eliminate schizonts that have not egressed. Smears were made every day for the following 3 days, and 5 μL of the resuspended cultures were taken to measure Nluc activity (to assess parasite’s presence). To measure Nluc activity, 5 μL culture were added to 45 μL NanoGlo reagent (1x Promega lysis buffer and NanoGlo reagent; Promega). The average luminescence of the background cultures was subtracted to the average luminescence of each sample. […]
The viable parasite value was then expressed in log units and parasite reduction ratio was calculated as a decrease in […]

Row | SMILES | inhibition of male gamete formation [1] | Dual Gamete Formation Assay: Male at 1 µM, Mean [1] | growth after washout of compound (ring-stage 3D7 parasites) | ring morphology after 48 h (ring-stage 3D7 parasites) | schizont development at 36 h (ring-stage 3D7 parasites) | impact on already-developed rings or trophozoites (ring-stage 3D7 parasites) | Parasitemia derived from flow cytometry (ring-stage 3D7 parasites; timepoint 0, no washout) | Parasitemia derived from flow cytometry (ring-stage 3D7 parasites; timepoint 0, washout) | Parasitemia derived from flow cytometry (ring-stage 3D7 parasites; timepoint 48, no washout) | Parasitemia derived from flow cytometry (ring-stage 3D7 parasites; timepoint 48, washout) | Parasitemia derived from flow cytometry (ring-stage 3D7 parasites; timepoint 96, no washout) | Parasitemia derived from flow cytometry (ring-stage 3D7 parasites; timepoint 96, washout) | Parasitemia derived from flow cytometry (ring-stage 3D7 parasites; timepoint 144, no washout) | Parasitemia derived from flow cytometry (ring-stage 3D7 parasites; timepoint 144, washout) | Parasitemia derived from flow cytometry (ring-stage 3D7 parasites; timepoint 192, no washout) | Parasitemia derived from flow cytometry (ring-stage 3D7 parasites; timepoint 192, washout) | Parasitemia derived from flow cytometry (ring-stage 3D7 parasites; timepoint 240, no washout) | Parasitemia derived from flow cytometry (ring-stage 3D7 parasites; timepoint 240, washout) | parasite morphology at 72 h after 4 h treatment (Hyp1-Nluc parasites) | parasite growth (Nluc bioluminescence) followed 72 h after 4 h treatment (Hyp1-Nluc parasites) | further results
1 | Cc1cc(Cl)c(S(=O)(=O)N2CCCC2)cc1OCC(=O)NC1CCCCC1 [M-833] | no inhibition | 0.872 | able to resume normal growth | presence of dysmorphic rings | slight developmental delay of schizonts | did not indicate any impact | 2.571 and 1.962 | 1.962 and 2.571 | 11.6017 and 7.415 | 7.415 and 11.6017 | 6.175 and 3.315 | 2.881 and 5.202 | 3.175 and 1.778 | 2.202 and 4.604 | 2.332 and 1.369 | 3.268 and 8.096 | 2.528 and 1.343 | 6.874 and 13.4537 | resembled the dysmorphic ring-stage parasites | virtually no recovery after three days | –
2 | CC(C)(Nc1ccc(Cl)c(S(=O)(=O)N2CCOCC2)c1)C(=O)Nc1ccc(F)c(Cl)c1 [W-991] | no inhibition | -1.328 | able to resume normal growth | presence of dysmorphic rings | slight developmental delay of schizonts | did not indicate any impact | 2.571 and 1.962 | 2.571 and 1.962 | 11.0007 and 8.084 | 11.0007 and 8.084 | 5.782 and 3.338 | 5.455 and 2.599 | 3.388 and 1.894 | 3.848 and 1.766 | 2.379 and 1.388 | 4.263 and 2.036 | 2.587 and 1.356 | 6.983 and 2.934 | resembled the dysmorphic ring-stage parasites | virtually no recovery after three days | reduction in parasitemia vs DMSO (Giemsa-stained smears) (ring-stage 3D7 parasites; 60 h time point): 1.3 fold
